Results published in patent US5243042A, “1-thiaguanosine and process for preparing oxanosine and 1-thiaguanosine” (Hoffmann-La Roche Inc., priority 1990, dated 1993).
Values after ≈ are worked out from the molar mass of the structure shown.

How the values were obtained:
Experiment in all cases: MIC by agar dilution method, minimal agar medium
Format in all cases: cell-based
[1] = tested on: S. typhimurium ATTC 13311; conditions: Salmonella enterica, over-night incubation at 36° C., read-out: MIC (minimum inhibitory concentration)
Experimental: (§1) To avoid possible antimetabolite reversal, a minimal agar medium^2 was employed. Inoculum was grown over-night at 36° C. in minimal broth medium and diluted a hundred-fold before use. Agar plates containing a serial dilution of the compounds of formula Ia were inoculated using a Steer's replicator. Approximately 3 μL was applied per spot. MICs were recorded after over-night incubation at 36° C.
(§2) ^1 Barry, A. L., Procedure for Testing Antimicrobial Agents in Agar Media: Theoretical Considerations, p. 1-26. In Victor Lorian (Ed.), Antibiotics in Laboratory Medicine, 2nd ed. The Williams & Wilkins Co., Baltimore.
(§3) ^2 Davis, B. D.; Mingioli, E. S. J. BACTERIOL. 1950, 60, 17-28.
(§4) The minimum inhibitory concentrations of 1-thiaguanosine, the compound of formula Ia, against various bacteria were as follows: […]

S. typhimurium LT-2 = conditions: Salmonella enterica, over-night incubation at 36° C., read-out: MIC (minimum inhibitory concentration)
Experimental: as §1, §2, §3, §4

E. coli ATCC 25922 = conditions: Escherichia coli, ATCC25922, over-night incubation at 36° C., read-out: MIC (minimum inhibitory concentration)
Experimental: as §1, §2, §3, §4

E. coli 257 = conditions: Escherichia coli, over-night incubation at 36° C., read-out: MIC (minimum inhibitory concentration)
Experimental: as §1, §2, §3, §4

Prov. rettgeri ATTC 9250 = conditions: Providencia rettgeri, ATTC9250, over-night incubation at 36° C., read-out: MIC (minimum inhibitory concentration)
Experimental: as §1, §2, §3, §4

E. coli 2721B = conditions: Escherichia coli, over-night incubation at 36° C., read-out: MIC (minimum inhibitory concentration)
Experimental: as §1, §2, §3, §4

E. coli 94 = conditions: Escherichia coli, over-night incubation at 36° C., read-out: MIC (minimum inhibitory concentration)
Experimental: as §1, §2, §3, §4

E. coli B = conditions: Escherichia coli, over-night incubation at 36° C., read-out: MIC (minimum inhibitory concentration)
Experimental: as §1, §2, §3, §4

Nc1nc2c(ncn2[C@@H]2O[C@H](CO)[C@@H](O)[C@H]2O)c(=O)s1 [1-thiaguanosine, 5-amino-3-(β-D-ribofuranosyl)imidazo[4,5-d][1,3]thiazin-7(3H)-one]
MIC [1]: 8 µg/mL (≈ 26.6 µM)
MIC (S. typhimurium LT-2): 8 µg/mL (≈ 26.6 µM)
MIC (E. coli ATCC 25922): 128 µg/mL (≈ 426 µM)
MIC (E. coli 257): 16 µg/mL (≈ 53.3 µM)
MIC (Prov. rettgeri ATTC 9250): 4 µg/mL (≈ 13.3 µM)
MIC (E. coli 2721B): 128 µg/mL (≈ 426 µM)
MIC (E. coli 94): 32 µg/mL (≈ 107 µM)
MIC (E. coli B): 128 µg/mL (≈ 426 µM)
